{"source": "patent US10166229B2", "about": "“Compounds and methods for the treatment of cancer” (The Board of Trustees of the University of Illinois, priority 2005, dated 2019)", "key": {"[1]": {"test_system": "white blood cells derived from the bone marrow of a healthy human donor", "test": "Cell death in normal white blood cells", "assay_type": "cell-based", "settings": "relative to cancer cell lines"}, "HL-60 cells [2]": {"test_system": "HL-60 cells", "test": "Cell death inhibition by z-vad-fmk", "assay_type": "cell-based, human", "protocol": "Cell death inhibition by z-vad-fmk. 100 μL HL-60 cells at a concentration of 5×10^5 cells/mL were added to the wells of a 96-well plate. The cells were then incubated for 1 hour in the presence or absence of 100 μM z-vad-fmk, a cell-permeable pan caspase inhibitor. […] The plates were incubated at 37° C. for approximately 45 minutes until the colored product formed."}, "[3]": {"test_system": "NCI-H226 lung cancer cell line", "test": "Cell death IC50 (MTS) in NCI-H226", "assay_type": "cell-based", "settings": "Homo sapiens, NCI-H226, 72 h, read-out: IC50 for cell death induction, NCI-H226"}, "[4]": {"test_system": "white blood cells from bone marrow, Hs888Lu, MCF-10A, Hs578Bst", "test": "Cell death in four non-cancerous cell types", "assay_type": "cell-based"}, "procaspase-3 [5]": {"biological_target": "T1, procaspase-3 (Homo sapiens (Human), UniProt P42574)", "T1 sequence (P42574 whole entry)": "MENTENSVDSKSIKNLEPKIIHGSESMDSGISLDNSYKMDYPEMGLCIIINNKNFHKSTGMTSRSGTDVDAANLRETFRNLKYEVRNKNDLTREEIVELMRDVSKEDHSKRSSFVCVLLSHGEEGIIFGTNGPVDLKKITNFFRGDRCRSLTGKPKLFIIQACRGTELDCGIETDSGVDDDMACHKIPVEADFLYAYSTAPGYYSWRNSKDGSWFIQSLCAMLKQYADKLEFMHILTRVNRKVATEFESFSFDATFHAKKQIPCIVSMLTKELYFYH", "test": "In vitro activation of purified procaspase-3 (activation curves, Ac-DEVD-pNA)", "assay_type": "biochemical", "settings": "for EC50: read-out: EC50 for activation of procaspase-3", "protocol": "Activation curves. […] The plate was read every 2 minutes at 405 nm for 2 hours in a Spectra Max Plus 384 well plate reader. The slope of the linear portion for each well was determined and the fold increase in activation from non-treated control wells was calculated. […]"}, "HL-60 cell line": {"test_system": "HL-60 cell line", "test": "IC50 of PAC-1 derivatives in HL-60 cell line (Table 5)", "assay_type": "cell-based", "excerpt": "The results are indicated in Table 5 (where L- and R-designations refer to structures shown in the AX and BX series above, respectively)."}, "PARP-1": {"biological_target": "PARP-1 (Homo sapiens (Human), UniProt P09874)", "sequence (P09874 whole entry, species assumed)": "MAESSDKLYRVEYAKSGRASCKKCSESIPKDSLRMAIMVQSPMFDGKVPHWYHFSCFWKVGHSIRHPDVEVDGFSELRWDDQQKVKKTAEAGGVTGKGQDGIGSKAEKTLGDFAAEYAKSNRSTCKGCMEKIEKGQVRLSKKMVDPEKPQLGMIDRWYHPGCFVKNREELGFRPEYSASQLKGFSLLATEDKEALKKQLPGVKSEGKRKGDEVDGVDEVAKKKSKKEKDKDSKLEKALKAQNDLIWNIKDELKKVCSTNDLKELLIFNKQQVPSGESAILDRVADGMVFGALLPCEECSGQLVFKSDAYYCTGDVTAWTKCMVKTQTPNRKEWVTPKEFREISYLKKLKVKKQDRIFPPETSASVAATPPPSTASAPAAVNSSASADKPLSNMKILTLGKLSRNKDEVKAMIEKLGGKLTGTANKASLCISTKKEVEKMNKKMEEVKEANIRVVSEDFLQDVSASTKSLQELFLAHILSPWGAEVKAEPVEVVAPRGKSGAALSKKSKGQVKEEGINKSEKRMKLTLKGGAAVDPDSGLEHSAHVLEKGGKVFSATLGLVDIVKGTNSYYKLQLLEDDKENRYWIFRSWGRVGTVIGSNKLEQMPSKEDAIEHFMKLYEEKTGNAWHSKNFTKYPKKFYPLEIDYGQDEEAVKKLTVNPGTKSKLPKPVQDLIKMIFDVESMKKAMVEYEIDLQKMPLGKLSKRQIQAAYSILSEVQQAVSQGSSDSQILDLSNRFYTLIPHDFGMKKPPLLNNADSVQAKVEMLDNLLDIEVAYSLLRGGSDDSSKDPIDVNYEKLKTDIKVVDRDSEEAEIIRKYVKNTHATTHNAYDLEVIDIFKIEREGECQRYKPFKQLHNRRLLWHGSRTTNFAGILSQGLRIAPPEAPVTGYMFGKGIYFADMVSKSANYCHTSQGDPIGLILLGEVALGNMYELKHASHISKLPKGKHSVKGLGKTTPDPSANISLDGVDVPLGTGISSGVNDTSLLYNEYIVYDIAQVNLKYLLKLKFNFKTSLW", "test": "Control experiment: direct inhibition of PARP-1 enzymatic activity", "assay_type": "biochemical", "settings": "control experiments"}, "[6]": {"test_system": "cells from adjacent non-cancerous tissue", "test": "Cell death in cells from adjacent non-cancerous colon tissue", "assay_type": "cell-based, human", "excerpt": "To test this direct, small molecule-mediated procaspase-3 activation strategy in clinical isolates of cancer, we obtained freshly resected colon tumors (together with adjacent non-cancerous tissue) from 18 patients from Carle Foundation Hospital (Urbana, Ill.)."}, "procaspase-3 mutant DDA": {"biological_target": "procaspase-3 mutant DDA (Homo sapiens, UniProt P42574, D181A)", "sequence (P42574 29-175 limits assumed)": "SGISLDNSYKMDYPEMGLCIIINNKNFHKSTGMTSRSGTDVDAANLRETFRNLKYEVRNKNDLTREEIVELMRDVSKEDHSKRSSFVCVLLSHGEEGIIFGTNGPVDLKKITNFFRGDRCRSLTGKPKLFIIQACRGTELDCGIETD", "sequence (P42574 176-277 D181A limits assumed)": "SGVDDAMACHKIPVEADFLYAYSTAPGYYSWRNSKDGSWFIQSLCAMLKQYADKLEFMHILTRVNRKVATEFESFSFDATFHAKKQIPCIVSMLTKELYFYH", "test": "Activation of safety catch mutant procaspase-3 (DDA)", "assay_type": "biochemical", "excerpt": "(§1) Safety catch mutations. The DDD procaspase-3 safety catch (SEQ ID NO:1; SEQ ID NO:2; SEQ ID NO:9) was mutated to ADD (SEQ ID NO:3, SEQ ID NO:4, SEQ ID NO:10), DAD (SEQ ID NO:5, SEQ ID NO:6, SEQ ID NO:11) and DDA (SEQ ID NO:7, SEQ ID NO:8, SEQ ID NO:12) using the quickchange strategy with the following primers, gacagacagtggtgttgCGgatgacatggcgtgtcataaaatacc (SEQ ID NO:13), gacagacagtggtgttgatgCtgacatggcgtgtcataaaatacc (SEQ ID NO:14) and gacagacagtggtgttgatgatgCcatggcgtgtcataaaatacc (SEQ ID NO:15) respectively. See also FIG. 9 and FIG. 10. Mutated bases are underlined and capitalized. All mutant plasmids were sequenced to ensure proper sequence throughout the gene. All mutant plasm ids were expressed exactly as wild-type procaspase-3 as described above. […] The plate was then incubated for 12 hours at 37° C. 10 μL of a 2 mM solution of Ac-DEVD-pNA (SEQ ID NO: 28) in caspase assay buffer was then added to each well. The plate was read every 2 minutes at 405 nm for 2 hours in a Spectra Max Plus 384 well plate reader. The slope of the linear portion for each well was determined and the fold increase in activity for each mutant was calculated."}, "[7]": {"test_system": "primary colon cancer cells", "test": "Cell death in primary cancerous cells from resected colon tumors", "assay_type": "cell-based, human"}, "procaspase-3 [8]": {"biological_target": "T1, procaspase-3", "test": "Western blot of in vitro procaspase-3 activation by DX compounds", "assay_type": "biochemical", "settings": "50 micromolar compound, about 35 nanomolar procaspase-3, 8 hr", "protocol": "Certain compounds were also tested for the ability to effect in vitro activation of procaspase-3."}, "HL-60 cells [9]": {"test_system": "HL-60 cells", "test": "Condensed chromatin staining (Hoechst)", "assay_type": "cell-based, human", "settings": "HL-60, 20 h, 100 μM", "protocol": "The cells were then washed in PBS buffer followed by the addition of ice-cold 100% ethanol. The cells were fixed overnight at 4° C. Fixed cells were incubated with 2 μg/mL Hoechst-33258 for 30 minutes at room temperature. A drop of cells was then added to a microscope slide and covered with a No. 1 thickness coverslip."}, "procaspase-3 mutant ADD": {"biological_target": "procaspase-3 mutant ADD", "test": "Activation of safety catch mutant procaspase-3 (ADD)", "assay_type": "biochemical, Homo sapiens", "excerpt": "as §1"}, "procaspase-3 mutant DAD": {"biological_target": "procaspase-3 mutant DAD (Homo sapiens, UniProt P42574, D180A)", "sequence (P42574 29-175 limits assumed)": "as the sequence (P42574 29-175 limits assumed) above", "sequence (P42574 176-277 D180A limits assumed)": "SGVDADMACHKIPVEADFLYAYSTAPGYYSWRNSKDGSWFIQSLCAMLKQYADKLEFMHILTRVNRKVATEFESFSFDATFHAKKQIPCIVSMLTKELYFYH", "test": "Activation of safety catch mutant procaspase-3 (DAD)", "assay_type": "biochemical", "settings": "Asp-Ala-Asp mutant", "excerpt": "as §1"}, "[10]": {"test_system": "cellular PARP activity in HL-60 cells", "test": "In vivo PARP activity assay (PARP cleavage) in HL-60", "assay_type": "cell-based, human", "settings": "HL-60, 100 μM PAC-1", "protocol": "In vivo determination of PARP cleavage. The amount of PARP cleavage was determined by using an in vivo PARP activity assay. To accomplish this, 50 μL of media containing 200 μM NAD^+ was added to the control wells of a 96-well plate. […] 25 μL of HL-60 cells at a concentration of 5×10^6 cells/mL were then added to each well. The cells were incubated for various times and then spun at 1000×g for 5 minutes. The cell media was removed and replaced with 50 μL Lysing PARP Buffer (50 mM Tris, 10 mM MgCl2, pH 8.0, 1% Triton X-100) containing 25 mM H2O2. The plate was then incubated for 60 minutes at 37° C. To determine the amount of NAD^+ still present, 20 μL of 2 M KOH and 20 μL of a 20% (v/v) acetophenone (in ethanol) solution was added to each well of the 96-well plate. The plate was then incubated for 10 minutes at 4° C. 90 μL of an 88% (v/v) formic acid solution was added to each well of the 96-well plate. […] The plate was allowed to cool and then read on a Criterion Analyst AD (Molecular Devices, Sunnyvale, Calif.) with an excitation of 360 nm, an emission of 445 nm and a 400 nm cutoff dichroic mirror. The fluorophore was excited using a 1000 W continuous lamp for 1.6×10^5 μs with 5 reads performed per well. The number of moles of NAD^+ cleaved per minute was then calculated and the remaining PARP activity as compared to control wells was determined."}}, "note": "Where “and” joins values, the source holds several entries; their conditions need not be identical. Equal values may be shown once. Entries after “also recorded” stand apart in the source; their conditions may differ. Read-outs that look alike come from different tables or passages of the source."}
{"compound": "C=CCc1cccc(/C=N/NC(=O)CN2CCN(Cc3ccccc3)CC2)c1O", "note": "[PAC-1]", "values": [{"measurement": "potency/toxicity in normal white blood cells", "setting": "[1]", "result": "comparatively less toxic; also recorded: markedly less potent"}, {"measurement": "toxicity in the presence of caspase inhibitor z-VAD-fmk", "setting": "HL-60 cells [2]", "result": "abolished"}, {"measurement": "IC50", "setting": "[3]", "result": 0.35, "unit": "µM"}, {"measurement": "IC50", "setting": "[4]", "result": "3.2 to 8.5", "unit": "µM"}, {"measurement": "procaspase-3 activation in vitro (in words)", "setting": "procaspase-3 [5]", "result": "activate procaspase-3 in vitro"}, {"measurement": "Activity (direct activation of purified procaspase-3 in vitro)", "setting": "procaspase-3 [5]; Table 2", "result": "Active"}, {"measurement": "EC50", "setting": "procaspase-3 [5]; in vitro", "result": "~0.22", "unit": "µM"}, {"measurement": "EC50", "setting": "procaspase-3 [5]; wild type procaspase-3 (DDD)", "result": 0.22, "unit": "µM"}, {"measurement": "Fold better than PAC-1", "setting": "HL-60 cell line; HL-60 IC50 relative to PAC-1", "result": 1.0, "unit": "fold"}, {"measurement": "IC50", "setting": "HL-60 cell line; Homo sapiens, HL-60, Table 5", "result": 54.6, "unit": "µM"}, {"measurement": "direct inhibition of enzymatic activity of PARP-1", "setting": "PARP-1", "result": "does not directly inhibit"}, {"measurement": "IC50", "setting": "[6]; Homo sapiens, read-out: PAC-1, IC50, Normal (adjacent non-cancerous tissue), per patient, 18 patients", "result": "5.02 to 9.98", "unit": "µM"}, {"measurement": "IC50", "setting": "[6]; read-out: PAC-1, IC50, Normal (adjacent non-cancerous tissue), per patient, 18 patients", "result": "6.88 µM and 6.28 µM and 7.34 µM and 5.67 µM and 6.54 µM and 9.98 µM and 5.94 µM and 5.63 µM and 5.5 µM and 7.58 µM and 5.96 µM and 5.02 µM and 5.17 µM and 6.39 µM and 6.78 µM and 9.79 µM and 6.61 µM and 9.5 µM"}, {"measurement": "EC50", "setting": "procaspase-3 mutant DDA", "result": 113, "unit": "µM"}, {"measurement": "sensitivity of cells in cancerous tissue in comparison with normal tissue", "setting": "[7]; FIG. 6B, Patient 3", "result": "greater than 80 fold"}, {"measurement": "IC50", "setting": "[7]; Homo sapiens, read-out: IC50 in cancer cells from patient 17, patient 17", "result": 0.007, "unit": "µM"}, {"measurement": "sensitivity of cancer cells versus cells from adjacent normal tissue", "setting": "[7]; patient 17", "result": "over 700 fold"}, {"measurement": "in vitro activation of procaspase-3 (Western blot) relative to control", "setting": "procaspase-3 [8]", "result": "substantial activity levels"}, {"measurement": "chromatin condensation", "setting": "HL-60 cells [9]", "result": "significant chromatin condensation"}, {"measurement": "EC50", "setting": "procaspase-3 mutant ADD", "result": 131, "unit": "µM"}, {"measurement": "EC50", "setting": "procaspase-3 mutant DAD", "result": 2.77, "unit": "µM"}, {"measurement": "cellular PARP activity / PARP-1 cleavage", "setting": "[10]", "result": "rapidly reduced; also recorded: induces cleavage of the caspase substrate PARP-1; also recorded: rapid decrease"}]}
